Results taken from BindingDB's records for patent US20230159469 (Txinno Bioscience, 2023).

Biological target: T1, Ectonucleotide pyrophosphatase/phosphodiesterase family member 1 (Homo sapiens, UniProt P22413)
T1 sequence (P22413 whole entry): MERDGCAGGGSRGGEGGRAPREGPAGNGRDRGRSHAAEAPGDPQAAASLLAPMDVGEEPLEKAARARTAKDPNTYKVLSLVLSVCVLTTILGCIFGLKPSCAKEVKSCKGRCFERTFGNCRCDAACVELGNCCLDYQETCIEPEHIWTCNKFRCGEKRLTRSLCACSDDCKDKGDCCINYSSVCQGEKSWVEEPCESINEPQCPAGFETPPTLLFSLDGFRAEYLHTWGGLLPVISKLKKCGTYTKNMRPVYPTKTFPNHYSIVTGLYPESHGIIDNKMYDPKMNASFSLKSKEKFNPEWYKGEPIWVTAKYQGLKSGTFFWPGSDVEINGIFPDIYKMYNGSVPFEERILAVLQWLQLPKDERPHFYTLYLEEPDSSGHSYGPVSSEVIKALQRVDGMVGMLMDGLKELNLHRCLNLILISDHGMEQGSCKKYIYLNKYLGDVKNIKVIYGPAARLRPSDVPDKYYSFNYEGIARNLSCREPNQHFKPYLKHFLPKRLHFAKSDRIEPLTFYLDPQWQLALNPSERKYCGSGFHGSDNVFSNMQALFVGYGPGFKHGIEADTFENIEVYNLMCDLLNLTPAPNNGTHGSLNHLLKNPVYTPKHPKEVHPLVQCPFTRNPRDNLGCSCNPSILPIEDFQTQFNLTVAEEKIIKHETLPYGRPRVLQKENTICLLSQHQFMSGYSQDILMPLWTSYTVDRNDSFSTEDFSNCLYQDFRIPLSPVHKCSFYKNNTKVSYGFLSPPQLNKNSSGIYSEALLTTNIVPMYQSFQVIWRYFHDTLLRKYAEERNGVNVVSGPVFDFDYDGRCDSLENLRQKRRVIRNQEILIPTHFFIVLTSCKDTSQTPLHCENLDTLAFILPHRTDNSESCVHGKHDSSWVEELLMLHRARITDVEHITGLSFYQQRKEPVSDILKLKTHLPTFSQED
Assay: ENPP1 Enzyme Assay with eGAMP Substrate
Protocol: ENPP1 hydrolyzes nucleotides or nucleotide derivatives to produce nucleoside -5′-monophosphate and pyrophosphate. in addition, ENPP1 hydrolyzes 2′,3′-cGAMP to produce 5′-adenosine monophosphate (AMP) and 5′-guanosine monophosphate (GMP). AMP produced from the reaction is measured using the AMP-Glo kit (Promega). The AMP-Glo kit contains two reagents. The first reagent terminates the AMP-producing enzymatic reaction, removes ATP and converts the produced AMP into ADP. The second reagent converts ADP to ATP which is used to generate luminescence in the luciferase reaction. […] CaCl2, 1 μM ZnCl2, 5% glycerol and 1% DMSO. […] The reaction was initiated by addition of cGAMP (at a final concentration of 5 μM) and reacted at 37 C. for 90 minutes. At the end of the reaction, 10 μl of the AMP-Glo first reagent was added to stop the reaction and the result was stored at room temperature for […]. After storage, 20 μl of an AMP detection solution (a mixture of AMP-Glo II reagent and Kinase-Gio at a ratio of 1:100) was added and stored at room. temperature for 1 hour. Luminescence signals were measured using a Victor plate reader (Perkin Elmer). The maximal activity control (containing enzymes and substrates only in the presence of 1% DMSO; MAX) and the minimal activity control (containing substrates and 1% DMSO; MIN) were evaluated simultaneously. In each experiment, serially diluted reference ENPP1 inhibitors were tested together. IC50, indicating % residual activity versus compound concentration was determined by fitting inhibition curves using the 3-parameter analysis of GraphPad Prism software. Serially diluted samples of one compound were tested two or more times and an average IC50 of each compound was calculated.

Compound | IC50
NS(=O)(=O)Nc1cccc(-c2n[nH]c(=O)c3ccccc23)c1 [US20230159469, Example 87] | < 1000 nM
N=S(=O)(O)NCc1ccc(-c2n[nH]c(=O)c3ccccc23)cc1 [US20230159469, Example 96] | < 1000 nM
COc1cc2c(-c3ccc(CNS(=N)(=O)O)cc3)nn(C)c(=O)c2cc1OC [US20230159469, Example 108] | ≥ 1000 nM
